In paper PMC10638516 (Acta Pharmaceutica Sinica. B, 2023):
Like-named read-outs stand apart in the source and are kept apart here.

Assays:
hD3R [1] = target: T1, hD3R (Homo sapiens, UniProt P35462); test: ERK1/2 phosphorylation; assay type: cell-based; conditions: for effect on ERK1/2 phosphorylation mediated by hD3R, compound alone (agonist mode): CHO-hD3R cells, quinpirole at 20 μmol/L
hD2R [2] = target: T2, hD2R (Homo sapiens, UniProt P14416); assay type: cell-based
dopamine D3 receptor = conditions: read-out: D3R Ki; reference modulators of the pERK assay; cited from earlier work
hD3R [3] = target: T1, hD3R; test: biochemical; assay type: binding; conditions: for Ki: Ki hD3, three experiments, means ± SEM
hD2R [4] = target: T2, hD2R; test: biochemical; assay type: binding; conditions: for inhibition at 10 µM: read-out: % inhibition at 10 μmol/L hD2
ICR mice [5] = test: MK-801-induced hyperactivity
ICR mice [6] = test: Apomorphine-induced climbing; assay type: in vivo, mouse; conditions: i.p., apomorphine 1.0 mg/kg s.c.
PC12 cells = test: CCK8 cytotoxicity test, PC12; assay type: cell-based; conditions: 24 h
mice = test: Catalepsy test in mice; assay type: in vivo, mouse
ICR mice [7] = test: Spontaneous locomotor test; conditions: compounds 30 mg/kg i.p., RPD 1 mg/kg, 15 min
hERG channel = hERG channel (Homo sapiens, UniProt Q12809); test: hERG channel automated patch clamp; assay type: cell-based; conditions: hERG inhibition IC50, patch clamp, tested three times
Chain of hERG channel (Q12809 whole entry): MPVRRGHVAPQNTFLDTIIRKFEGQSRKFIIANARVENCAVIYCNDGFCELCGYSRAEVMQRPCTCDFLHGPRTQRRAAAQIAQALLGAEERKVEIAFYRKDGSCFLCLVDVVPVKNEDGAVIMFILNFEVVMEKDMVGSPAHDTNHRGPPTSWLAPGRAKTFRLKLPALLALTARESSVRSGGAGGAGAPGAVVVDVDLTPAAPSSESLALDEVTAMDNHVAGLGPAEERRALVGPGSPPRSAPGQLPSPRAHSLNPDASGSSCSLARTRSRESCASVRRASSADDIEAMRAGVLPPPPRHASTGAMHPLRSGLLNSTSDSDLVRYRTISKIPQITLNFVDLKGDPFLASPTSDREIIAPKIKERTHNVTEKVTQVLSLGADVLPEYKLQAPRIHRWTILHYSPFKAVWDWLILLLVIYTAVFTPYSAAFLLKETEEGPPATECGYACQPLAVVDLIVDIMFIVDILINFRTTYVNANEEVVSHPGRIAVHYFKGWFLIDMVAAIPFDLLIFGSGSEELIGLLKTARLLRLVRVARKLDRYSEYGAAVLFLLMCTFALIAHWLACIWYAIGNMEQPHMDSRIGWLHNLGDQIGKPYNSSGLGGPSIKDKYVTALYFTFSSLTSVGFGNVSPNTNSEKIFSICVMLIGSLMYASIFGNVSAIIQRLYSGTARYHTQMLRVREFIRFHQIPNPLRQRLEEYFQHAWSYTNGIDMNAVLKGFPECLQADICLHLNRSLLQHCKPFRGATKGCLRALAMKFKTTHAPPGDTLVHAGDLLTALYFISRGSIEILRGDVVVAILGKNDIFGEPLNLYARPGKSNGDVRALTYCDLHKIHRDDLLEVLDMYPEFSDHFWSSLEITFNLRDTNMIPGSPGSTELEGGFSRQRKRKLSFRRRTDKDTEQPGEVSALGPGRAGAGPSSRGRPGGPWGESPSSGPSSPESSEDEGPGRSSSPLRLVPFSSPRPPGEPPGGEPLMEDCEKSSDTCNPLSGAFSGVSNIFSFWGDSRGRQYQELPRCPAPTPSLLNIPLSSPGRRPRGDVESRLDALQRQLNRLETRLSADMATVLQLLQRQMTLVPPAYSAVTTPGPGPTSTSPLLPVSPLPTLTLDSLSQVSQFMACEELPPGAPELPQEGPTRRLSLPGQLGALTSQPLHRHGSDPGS

[8] = read-out: % inhibition at 10 μmol/L hD3, 10 μmol/L test compound

T2 sequence (P14416 whole entry): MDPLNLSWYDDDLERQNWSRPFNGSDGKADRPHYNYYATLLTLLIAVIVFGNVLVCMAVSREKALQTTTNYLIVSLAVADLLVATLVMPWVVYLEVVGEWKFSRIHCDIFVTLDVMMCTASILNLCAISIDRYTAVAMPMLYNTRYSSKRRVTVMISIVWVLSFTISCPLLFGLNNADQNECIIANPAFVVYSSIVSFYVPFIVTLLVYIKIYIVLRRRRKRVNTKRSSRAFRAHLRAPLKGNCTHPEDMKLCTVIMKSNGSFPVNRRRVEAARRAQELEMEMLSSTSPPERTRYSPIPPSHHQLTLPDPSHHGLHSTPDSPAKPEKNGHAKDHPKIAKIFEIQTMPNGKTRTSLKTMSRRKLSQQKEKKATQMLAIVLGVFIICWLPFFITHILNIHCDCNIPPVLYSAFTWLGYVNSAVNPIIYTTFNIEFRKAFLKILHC
T1 sequence (P35462 whole entry): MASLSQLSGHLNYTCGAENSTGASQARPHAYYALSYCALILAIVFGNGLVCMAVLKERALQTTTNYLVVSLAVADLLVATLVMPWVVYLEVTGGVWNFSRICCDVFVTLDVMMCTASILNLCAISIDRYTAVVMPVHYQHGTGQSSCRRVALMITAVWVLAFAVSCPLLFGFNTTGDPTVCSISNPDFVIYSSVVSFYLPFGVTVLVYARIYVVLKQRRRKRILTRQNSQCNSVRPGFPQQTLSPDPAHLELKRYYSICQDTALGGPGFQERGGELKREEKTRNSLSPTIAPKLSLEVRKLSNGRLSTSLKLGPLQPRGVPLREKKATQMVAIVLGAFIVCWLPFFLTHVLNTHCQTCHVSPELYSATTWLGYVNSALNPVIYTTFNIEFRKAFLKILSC

| SMILES | Ki (hD3R [3]) [µM] | inhibition at 10 µM (hD3R [3]; [8]) [%] | Ki (hD2R [4]) [µM] | inhibition at 10 µM (hD2R [4]) [%] | further results |
| --- | --- | --- | --- | --- | --- |
| CCCN1CCO[C@@H]2c3cc(O)ccc3OC[C@H]21 [PD128907, reference compound] | – | – | – | – | effect on ERK1/2 phosphorylation mediated by hD3R, compound alone (agonist mode) (hD3R [1]): full ERK1/2 phosphorylation; effect on ERK1/2 phosphorylation mediated by hD2R, compound alone (agonist mode) (hD2R [2]): but not CHO-hD2R cells; Ki (dopamine D3 receptor): 0.001 µM |
| CCn1c2ccccc2c2cc(CNCCCCNC(=O)c3ccc4[nH]c(=O)[nH]c4c3)ccc21 [23e] | 0.0993 ± 0.0319 | 99.2 ± 0.5 | > 10 | 1.9 ± 10.7 | – |
| Cn1c2c(c3ccccc31)CN(CCCCNC(=O)c1ccnc3ccccc13)CC2 [36e] | – | 68.1 ± 1.9 | – | -2 ± 17.4 | – |
| CCn1c2ccccc2c2cc(CNCCCNC(=O)c3nc4ccccc4[nH]3)ccc21 [22c] | – | 32.7 ± 11.4 | – | 22.4 ± 5.7 | – |
| NCCc1ccc(O)c(O)c1 [dopamine, reference compound] | – | – | – | – | effect on ERK1/2 phosphorylation mediated by hD2R, compound alone (agonist mode) (hD2R [2]): significantly increased |
| Cn1c2c(c3ccccc31)CN(CCCCNC(=O)c1cnc3ccccc3c1)CC2 [36d] | – | 42.5 ± 6.8 | – | 15.6 ± 12.9 | – |
| Cn1c2c(c3ccccc31)CN(CCCCNC(=O)c1ccc3[nH]cnc3c1)CC2 [36j] | 0.0142 ± 0.0007 | 74.4 ± 8.2 | > 10 | 27.7 ± 1.4 | – |
| Cn1c2c(c3ccccc31)CN(CCCCNC(=O)c1ccc(-c3cccnc3)cc1)CC2 [36g] | 0.029 ± 0.0033 | 83.8 ± 12.7 | > 10 | 29.2 ± 5.8 | – |
| Cn1c2c(c3ccccc31)CCN(CCCCNC(=O)c1ccc3nc[nH]c3c1)C2 [42e] | 0.203 | 81.5 ± 0.6 | – | 49.7 ± 1.2 | – |
| CN(C)C(=O)N[C@H]1CC[C@H](CCN2CCN(c3cccc(Cl)c3Cl)CC2)CC1 [Cariprazine, cariprazine, reference compound] | – | – | – | – | effect on ERK1/2 phosphorylation mediated by hD2R, compound alone (agonist mode) (hD2R [2]): did not exhibit significant effects; inhibition of MK-801-induced hyperactivity (ICR mice [5]; i.p., MK-801 0.3 mg/kg s.c., 60 min): dose-dependently inhibited; inhibition of apomorphine-induced climbing (ICR mice [6]): dose-dependent inhibition |
| CCn1c2ccccc2c2cc(CNCCCNC(=O)N(C)C)ccc21 [22a] | – | 42.1 ± 2.2 | – | – | – |
| Cn1c2c(c3ccccc31)CN(CCCCNC(=O)c1cn3nc(Cl)ccc3n1)CC2 [36c] | – | 66.3 ± 9.1 | – | 21.1 ± 9 | – |
| Cn1c2c(c3ccccc31)CN(CCCCNC(=O)c1ccc3[nH]c(=O)[nH]c3c1)CC2 [36i] | 0.0037 ± 0.0006 | 87.5 ± 6.1 | > 10 | 38.9 ± 3.8 | – |
| CCn1c2c(c3ccccc31)CCN(CCCCNC(=O)c1ccc3[nH]c(=O)[nH]c3c1)C2 [42j] | 0.149 | 85.9 ± 0.07 | – | 48.8 ± 0.7 | – |
| CCn1c2c(c3ccccc31)CCN(CCCCNC(=O)c1ccc(-c3cccnc3)cc1)C2 [42h] | – | 31.3 ± 0.6 | – | 28.9 ± 0.8 | – |
| CCn1c2ccccc2c2cc(CNCCCCNC(=O)c3ccc(-c4ccccn4)cc3)ccc21 [23i] | 0.0213 ± 0.0043 | 101 ± 0.8 | > 10 | 6.5 ± 2.3 | improvement of D3R binding affinity versus the phenyl group (23g) (hD3R [3]): approximately 10 fold |
| CCn1c2c(c3ccccc31)CCN(CCCCNC(=O)c1ccc3nc[nH]c3c1)C2 [42f] | 0.3 | 80.6 ± 1.1 | – | 54.1 ± 0.1 | – |
| c1ccc2c(c1)[nH]c1ccc(CNCCCn3ccnc3)cc12 [compound 8] | – | 54.2 ± 7.7 | – | 33.2 ± 17.5 | – |
| CCCN(CCCCNC(=O)c1cc2ccccc2[nH]1)Cc1ccc2c(c1)c1ccccc1n2CC [31c] | 0.448 ± 0.0261 | 98.6 ± 0.6 | 0.301 ± 0.0119 | 89.8 ± 2.9 | – |
| Cn1c2c(c3ccccc31)CN(CCCCNC(=O)c1cc3ccccc3[nH]1)CC2 [36a] | 0.0106 ± 0.0045 | 97.6 ± 2 | > 10 | 20.9 ± 3.8 | cytotoxicity in PC12 cells (PC12 cells): significant cytotoxicity at high concentrations; effect on ERK1/2 phosphorylation mediated by hD3R, compound alone (agonist mode) (hD3R [1]): no influence; competitive antagonism of ERK1/2 phosphorylation mediated by D3R (hD3R [1]; in the presence of 20 μmol/L dopamine): dose-dependently inhibit; Catalepsy MED i.p. (minimum effective dose) (mice): ≥480.0 mg/kg; Catalepsy peak effect (percent of cataleptic animals) (mice; i.p.): 0.0%; catalepsy under all tested doses (mice; i.p., 23j up to 240 mg/kg, 36a/b/f up to 480 mg/kg): did not elicit catalepsy; effect on ERK1/2 phosphorylation mediated by hD2R, compound alone (agonist mode) (hD2R [2]): weak partial agonism; effect on spontaneous locomotion (ICR mice [7]): no influences; IC50 (hERG channel): 1.32 µM; inhibition of MK-801-induced hyperactivity at 3 mg/kg (ICR mice [5]; 3 mg/kg i.p.): did not show the inhibition activity |
| CCn1c2ccccc2c2cc(CNCCCCNC(=O)c3cc4ccccc4[nH]3)ccc21 [23a] | 0.0626 ± 0.008 | 87 ± 2.5 | > 10 | 30 ± 14.1 | – |
| CCn1c2c(c3ccccc31)CCN(CCCCNC(=O)c1cc3ccccc3[nH]1)C2 [42b] | 0.0129 ± 0.0021 | 106 ± 3.6 | > 10 | 17.5 ± 1.5 | – |
| CCn1c2ccccc2c2cc(CNCCCCNC(=O)c3ccnc4ccccc34)ccc21 [23m] | – | 63.1 ± 0.2 | – | – | – |

| SMILES | Ki (hD3R [3]) [µM] | inhibition at 10 µM (hD3R [3]; [8]) [%] | Ki (hD2R [4]) [µM] | inhibition at 10 µM (hD2R [4]) [%] | further results |
| --- | --- | --- | --- | --- | --- |
| CCn1c2ccccc2c2cc(CNCCCn3cnc4cncnc43)ccc21 [17e] | – | – | – | 10.6 ± 7.4 | – |
| CCn1c2ccccc2c2cc(CNCCCn3cnc4ccccc43)ccc21 [17d] | 1.1 ± 0.115 | – | > 10 | 71.8 ± 3.6 | inhibition at 10 µM (hD3R [3]; read-out: % inhibition at 10 μmol/L hD3): 75 ± 14.5% |
| CCCN(CCCCNC(=O)c1cc2ccccn2n1)Cc1ccc2c(c1)c1ccccc1n2CC [31e] | 0.478 ± 0.0294 | 74.8 ± 1.5 | > 10 | 18.6 ± 2.5 | – |
| CCN(CCCCNC(=O)c1cc2ccccc2[nH]1)Cc1ccc2c(c1)c1ccccc1n2CC [31a] | 0.134 ± 0.0096 | 96.2 ± 0.2 | 0.333 ± 0.0036 | 88.1 ± 1.5 | – |
| CCn1c2ccccc2c2cc(CNCCCCNC(=O)c3cc4ccccn4n3)ccc21 [23c] | 0.0457 ± 0.0022 | 98.4 ± 2 | > 10 | – | – |
| CCn1c2ccccc2c2cc(CNCCCCNC(=O)c3ccc4[nH]c(=O)oc4c3)ccc21 [23f] | 0.0951 ± 0.0089 | 97.6 ± 0.3 | > 10 | 5.5 ± 21.5 | – |
| CCn1c2ccccc2c2cc(CNCCCCNC(=O)c3ccc4[nH]c5ccccc5c4c3)ccc21 [23k] | 0.145 ± 0.0119 | 98.1 ± 0.8 | > 10 | 10.6 ± 3.3 | – |
| CCn1c2ccccc2c2cc(CNCCCCNC(=O)c3cnc4ccccc4c3)ccc21 [23l] | 0.0857 ± 0.0029 | 100 ± 1.3 | > 10 | 9.6 ± 0.1 | – |
| CCn1c2ccccc2c2cc(CNCCCNC(=O)c3cc4ccccc4[nH]3)ccc21 [22b] | – | 21.3 ± 8.5 | – | 8.1 ± 3.9 | – |
| CCn1c2ccccc2c2cc(CNCCCCNC(=O)c3ccc(-c4ccccc4)cc3)ccc21 [23g] | 0.206 ± 0.0029 | 102 ± 1.2 | > 10 | – | – |
| CCN(CCCCNC(=O)c1ccc(-c2cccnc2)cc1)Cc1ccc2c(c1)c1ccccc1n2CC [31b] | 0.422 ± 0.0183 | 78.5 ± 0.3 | > 10 | 36.9 ± 2.1 | – |
| Cn1c2c(c3ccccc31)CCN(CCCCNC(=O)c1ccc3[nH]c(=O)[nH]c3c1)C2 [42i] | 0.112 | 85.2 ± 0.5 | – | 37.6 ± 0.2 | – |
| CCn1c2ccccc2c2cc(CNCCCCn3ccnc3)ccc21 [17a] | 0.994 ± 0.0366 | 75.6 ± 3.5 | > 10 | – | – |
| CCn1c2ccccc2c2cc(CNCCCCNC(=O)c3ccc(-c4ccc(C(C)=O)cc4)cc3)ccc21 [23h] | 0.0242 ± 0.0044 | 105 ± 1.5 | > 10 | 5.2 ± 7.6 | – |
| Cn1c2c(c3ccccc31)CCN(CCCCNC(=O)c1cc3ccccc3[nH]1)C2 [42a] | 0.0068 ± 0.0008 | 106 ± 1.3 | > 10 | 9.1 ± 16.4 | – |
| Cn1c2c(c3ccccc31)CN(CCCCNC(=O)c1ccc3[nH]c4ccccc4c3c1)CC2 [36h] | 0.0196 ± 0.0073 | 95.5 ± 0.7 | – | 74.4 ± 3.3 | – |
| CCn1c2ccccc2c2cc(CNCCCn3cnc4c(Cl)ncnc43)ccc21 [17f] | – | – | – | 12.8 ± 7.7 | – |
| CC(C)n1c2ccccc2c2cc(CNCCCn3ccnc3)ccc21 [3c] | 0.665 ± 0.0135 | 83.8 ± 10.2 | > 10 | 1.7 ± 9.2 | – |
| CCn1c2c(c3ccccc31)CN(CCCCNC(=O)c1cc3ccccc3[nH]1)CC2 [36k] | 0.0155 ± 0.0018 | 106 ± 2.2 | > 10 | 13.2 ± 7.3 | – |
| CCCN(CCCCNC(=O)c1ccc(-c2cccnc2)cc1)Cc1ccc2c(c1)c1ccccc1n2CC [31d] | 0.994 ± 0.0453 | 81.3 ± 0.6 | > 10 | 26.8 ± 0.9 | – |
| CCn1c2ccccc2c2cc(CNCCCCNC(=O)c3nc4ccccc4[nH]3)ccc21 [23b] | 0.578 ± 0.085 | 86.7 ± 1.9 | > 10 | – | – |
| CCn1c2ccccc2c2cc(CNCCCCNC(=O)c3ccc4[nH]cnc4c3)ccc21 [23d] | 0.125 ± 0.0176 | 98.5 ± 2.3 | > 10 | 2.7 ± 4.3 | – |
| Cn1c2c(c3ccccc31)CCN(CCCCNC(=O)c1ccc(-c3cccnc3)cc1)C2 [42g] | – | 69.6 ± 0.8 | – | 37.8 ± 1 | – |
